Source: PMC12348585, “Semi-Synthesis, Anti-Leukemia Activity, and Docking Study of Derivatives from 3α,24-Dihydroxylup-20(29)-en-28-Oic Acid” (Molecules, 2025)

What was measured:
K562 cells = test system: K562 cells; set-up: method as in PMID 32178533; conditions: cited from earlier work
JURKAT cells = conditions: read-out: IC50 in JURKAT cells; cited from earlier work
[1] = test system: normal peripheral blood lymphocytes (PBLs); conditions: cited from earlier work
[2] = test system: leukemia cell lines (CCRF-CEM, REH, JURKAT, MOLT-4, THP-1); experiment: Cell viability assay, all leukemia cell lines tested (summary statements); format: cell-based; conditions: 48 h, summary over CCRF-CEM, REH, JURKAT, MOLT-4, THP-1
Description: (§1) Cell lines were cultured in RPMI 1640 medium (Roswell Park Memorial Institute medium) supplemented with 10% fetal bovine serum (FBS) and 1% penicillin–streptomycin. Cultures were maintained at 37 °C in a humidified incubator with 5% CO2. All biological evaluations were performed using cell between passages 3 and 4. All compounds were dissolved in dimethyl sulfoxide (DMSO) at a concentration of 20 mg/mL. In all assays, culture medium containing 0.1% DMSO was used as the negative control, while dasatinib was included as the positive control. Normal mononuclear cells (MNCs) were included as the normal cell control. All experiments were performed in triplicate. Leukemic cell lines and normal mononuclear cells (MNCs) were used to evaluate the cytotoxicity of the compounds. Leukemic cells (1 × 10^5 cells/well) were cultured in 96-well plates and treated with increasing concentrations of compounds (0.02, 0.2, 2.0, and 20 µM) for 48 h. After incubation, both leukemic cells and MNCs were collected, washed with phosphate-buffered saline (PBS), and stained with DAPI (500 ng/mL) for 15 min in darkness, following the manufacturer’s instructions. Fluorescence was analyzed using a FACSVerse flow cytometer (BD Bioscience, San Jose, CA, USA). Flow cytometry data were analyzed using FlowJo^TM software (version 10.9). […] All experiments were performed in triplicate, and results were expressed as means ± standard errors of the means (SEMs). Statical analysis was performed using one-way analysis of variance (ANOVA), followed by Dunnett’s post hoc test to compare treated groups against the control.

[3] = Cell viability assay in normal mononuclear cells; format: cell-based, human; conditions: human
Description: (§2) All compounds were dissolved in dimethyl sulfoxide (DMSO) at a concentration of 20 mg/mL. In all assays, culture medium containing 0.1% DMSO was used as the negative control, while dasatinib was included as the positive control. Normal mononuclear cells (MNCs) were included as the normal cell control. All experiments were performed in triplicate. Normal mononuclear cells (MNCs) were isolated from peripheral blood mononuclear cells obtained from healthy human donors. Cell collection was conducted in accordance with institutional guidelines, including written informed consent from each participant. All procedures were approved by Ethics and Scientific Committee of the Mexican Institute of Social Security (IMSS, ethical approval number: CNIC R-2021-785-025). The MNCs were purified using FicollPaque Plus (Pharmacia Biotech, Uppsala, Sweden) by centrifugation at 400× g for 30 min at room temperature, following the manufacturer’s protocol. The resulting cells were resuspended in RPMI-1640 medium supplemented with 10% fetal bovine serum (FBS) and counted using a hemocytometer after trypan blue staining, confirming a viability of 95% [56]. […] After incubation, both leukemic cells and MNCs were collected, washed with phosphate-buffered saline (PBS), and stained with DAPI (500 ng/mL) for 15 min in darkness, following the manufacturer’s instructions. Fluorescence was analyzed using a FACSVerse flow cytometer (BD Bioscience, San Jose, CA, USA). Flow cytometry data were analyzed using FlowJo^TM software (version 10.9). […] All experiments were performed in triplicate, and results were expressed as means ± standard errors of the means (SEMs). Statical analysis was performed using one-way analysis of variance (ANOVA), followed by Dunnett’s post hoc test to compare treated groups against the control.

[4] = test system: peripheral blood mononuclear cells (MNCs); experiment: Cell viability assay in normal mononuclear cells; format: cell-based, human
Description: as §2

REH = experiment: Cell viability assay (DAPI, flow cytometry), REH; format: cell-based; conditions: for IC50: Homo sapiens, REH, 48 h, mean ± SEM, N/A: not active
Description: as §1

MOLT-4 = experiment: Cell viability assay (DAPI, flow cytometry), MOLT-4; format: cell-based
Description: as §1

THP-1 = experiment: Cell viability assay (DAPI, flow cytometry), THP-1; format: cell-based
Description: as §1

CCRF-CEM = experiment: Cell viability assay (DAPI, flow cytometry), CCRF-CEM; format: cell-based
Description: as §1

JURKAT = experiment: Cell viability assay (DAPI, flow cytometry), JURKAT; format: cell-based
Description: as §1

[5] = ratio of IC50 in the MNC line over IC50 in the leukemia cell line

**Q.** For C=C(C=O)[C@@H]1CC[C@]2(C)CC[C@]3(C)[C@H](CC[C@@H]4[C@@]5(C)CC[C@H](O)C(C)(C)[C@@H]5CC[C@]43C)[C@@H]12 [3β-hydroxylup-20(29)-en-30-al], which IC50 (K562 cells) is on record?
**A.** 19.5 ± 0.47 µM

**Q.** And the IC50 (JURKAT cells)?
**A.** 11.7 ± 1.06 µM

**Q.** And the “reduction of viability of normal peripheral blood lymphocytes (PBLs)” value [1]?
**A.** 32.17%

**Q.** What does the source list for C=C(C)C1CCC2(C(=O)O)CCC3(C)C(CCC4C5(C)CCC(O)C(C)(CO)C5CCC43C)C12 (stereo not drawn) [Compound T1, 3α,24-dihydroxylup-20(29)-en-28-oic acid]?
**A.** IC50 across all leukemia cell lines tested [2]: no activity; IC50 at 48 h [3]: > 200 µM

**Q.** Which results are given for C=C(C)C1CCC2(C(=O)O)CCC3(C)C(CCC4C5(C)CCC(OC)C(C)(CO)C5CCC43C)C12 (stereo not drawn) [Compound T1a, 3α-methoxy-24-hydroxylup-20(29)-en-28-oic acid]?
**A.** IC50 MNCs [4]: no activity; IC50 (REH): > 20 µM

**Q.** Which results are given for C=C(C=O)C1CCC2(C(=O)O)CCC3(C)C(CCC4C5(C)CCC(OC)C(C)(CO)C5CCC43C)C12 (stereo not drawn) [Compound T1b, 3α-methoxy-24-hydroxy-30-oxolup-20(29)-en-28-oic acid]?
**A.** IC50 ([2]; read-out: IC50 across all leukemia cell lines tested): 4.05 to 15 µM; IC50 (MOLT-4; Homo sapiens, MOLT-4, 48 h, mean ± SEM, N/A: not active): 4.05 ± 0.1 µM; SI: selectivity index, MOLT-4 (MOLT-4; [5]): 2.66; IC50 (THP-1; Homo sapiens, THP-1, 48 h, mean ± SEM, N/A: not active): 11.04 ± 0.1 µM; SI: selectivity index, THP-1 (THP-1; [5]): 0.97; IC50 (CCRF-CEM; Homo sapiens, CCRF-CEM, 48 h, mean ± SEM, N/A: not active): 6.87 ± 0.6 µM; SI: selectivity index, CCRF-CEM (CCRF-CEM; [5]): 1.59; IC50 (JURKAT; Homo sapiens, Jurkat, 48 h, mean ± SEM, N/A: not active): 15 ± 1.6 µM; SI: selectivity index, JURKAT (JURKAT; [5]): 0.72; IC50 at 48 h [3]: 10.8 ± 1.3 µM; IC50 (REH): 9.46 ± 3.2 µM; SI: selectivity index, REH (REH; [5]): 1.13
